Columns and labels:
Assay in all cases: Northern blot analysis of TSG mRNA levels in FS-4 cells
Type in all cases: cell-based, human
TSG-1 (IL-8) mRNA = settings: growth arrested FS-4 cells, 2 h; TNF 20 ng/ml, CHX 10 ug/ml, IFN-β 500 U/ml, IFN-γ 100 U/ml, IL-1-α 1 ng/ml, EGF 25 ng/ml, TGF-β 2 ng/ml, poly(I).poly(C) 50 ug/ml, TPA 100 ng/ml, A23187 1 uM, forskolin 10 uM, dBcAMP 100 uM, IBMX 100 uM
Protocol: (§1) The human diploid FS-4 foreskin fibroblast cell line (Vilcek, J. et al, Proc. Natl. Acad. Sci. USA 70:3909-3913 (1973)) was used at passage level 15 in all experiments. FS-4 cells were grown in Eagle minimal essential medium (E-MEM) supplemented with 6 mM HEPES, 3 mM Tricine, 50 μg/ml gentamicin, and 5% heat inactivated (56° C., 30 min) fetal bovine serum (FBS; GIBCO Laboratories, Grand Island, N.Y.). For experiments, 4×10^6 cells were seeded in 175 cm^2 Falcon flasks, incubated at 37° C., and allowed to grow to confluence over 6 days. The confluent monolayers were washed once with phosphate buffered saline and replenished with E-MEM containing […] FBS. The cultures were incubated in this medium for another 72 h at 37° C. to let the cells become quiescent and then treated with the appropriate agents, as specified herein.
(§2) Cytoplasmic RNA was fractionated on a 1% agarose gel containing formaldehyde and blotted onto Zeta-probe blotting membranes (Bio-Rad Laboratories, Richmond, Calif.). Cytoplasmic RNA was loaded at 10 μg/lane. Prehybridization and hybridization of Northern blots were performed as described (Lin, J.-X. et al, supra). Filters were probed with 32P-labeled cDNA insert from recombinant M13 clones and/or with 32P-labeled internal reference pHe7 insert. Northern blots were quantified with a laser densitometer.
(§3) The increase in mRNA levels ranged from about 3-fold (TSG-21) to over 100-fold (TSG-6 and TSG-8).
(§4) Table 3 provides a summary of a large number of experiments in which levels of mRNAs corresponding to the 8 distinct TSG cDNAs were determined in FS-4 cells exposed to various agents by Northern blot analysis. Three of the mRNAs (corresponding to TSG-8, TSG-12 and TSG-14) were inducible by the protein synthesis inhibitor, cycloheximide (CHX). […] In contrast, induction of the remaining 3 mRNAs by TNF was inhibited or reduced in the presence of CHX. Five of the mRNAs were inducible by IFN-β, but only two of these responded to […]. Simultaneous treatment with IFN-β reduced inducibility of TSG-1 (=IL-8) mRNA by TNF, but increased the inducibility of TSG-6 and TSG-37 mRNAs. All mRNAs were inducible by IL-1 and by the doublestranded RNA poly(I)-poly(C) or the phorbol ester 12-O-tetradecanoyl phorbol 13-acetate (TPA), but the efficiency of induction by these agents varied. Epidermal growth factor (EGF) was moderately efficient in increasing TSG-21 (=collagenase) and TSG-27 (=stromelysin) mRNA levels, and weakly stimulated several other mRNAs. PDGF and transforming growth factor-β (TGF-β) were only weakly effective, as were dibutyryl cyclic AMP (dBcAMP) and the phosphodiesterase inhibitor, isobutyl methyl xanthine (IBMX).

TSG-12 mRNA = settings: growth arrested FS-4 cells, 2 h; TNF 20 ng/ml, CHX 10 ug/ml, IFN-β 500 U/ml, IFN-γ 100 U/ml, IL-1-α 1 ng/ml, EGF 25 ng/ml, TGF-β 2 ng/ml, poly(I).poly(C) 50 ug/ml, TPA 100 ng/ml, A23187 1 uM, forskolin 10 uM, dBcAMP 100 uM, IBMX 100 uM
Protocol: as §1, §2, §3, §4

TSG-14 mRNA = settings: growth arrested FS-4 cells, 2 h; TNF 20 ng/ml, CHX 10 ug/ml, IFN-β 500 U/ml, IFN-γ 100 U/ml, IL-1-α 1 ng/ml, EGF 25 ng/ml, TGF-β 2 ng/ml, poly(I).poly(C) 50 ug/ml, TPA 100 ng/ml, A23187 1 uM, forskolin 10 uM, dBcAMP 100 uM, IBMX 100 uM
Protocol: as §1, §2, §3, §4

[1] = test system: TSG-21 (Collagenase) mRNA; settings: growth arrested FS-4 cells, 16 h of treatment; TNF 20 ng/ml, CHX 10 ug/ml, IFN-β 500 U/ml, IFN-γ 100 U/ml, IL-1-α 1 ng/ml, EGF 25 ng/ml, TGF-β 2 ng/ml, poly(I).poly(C) 50 ug/ml, TPA 100 ng/ml, forskolin 10 uM, IBMX 100 uM
Protocol: as §1, §2, §3, §4

[2] = test system: TSG-27 (Stromelysin) mRNA; settings: growth arrested FS-4 cells, 16 h of treatment; TNF 20 ng/ml, CHX 10 ug/ml, IFN-β 500 U/ml, IFN-γ 100 U/ml, IL-1-α 1 ng/ml, EGF 25 ng/ml, TGF-β 2 ng/ml, poly(I).poly(C) 50 ug/ml, TPA 100 ng/ml, forskolin 10 uM, IBMX 100 uM
Protocol: as §1, §2, §3, §4

TSG-37 (MT-II) mRNA = settings: growth arrested FS-4 cells, 2 h; TNF 20 ng/ml, CHX 10 ug/ml, IFN-β 500 U/ml, IFN-γ 100 U/ml, IL-1-α 1 ng/ml, EGF 25 ng/ml, TGF-β 2 ng/ml, poly(I).poly(C) 50 ug/ml, TPA 100 ng/ml, A23187 1 uM, forskolin 10 uM, dBcAMP 100 uM, IBMX 100 uM
Protocol: as §1, §2, §3, §4

TSG-6 mRNA = settings: growth arrested FS-4 cells, 2 h; TNF 20 ng/ml, CHX 10 ug/ml, IFN-β 500 U/ml, IFN-γ 100 U/ml, IL-1-α 1 ng/ml, EGF 25 ng/ml, TGF-β 2 ng/ml, poly(I).poly(C) 50 ug/ml, TPA 100 ng/ml, A23187 1 uM, forskolin 10 uM, dBcAMP 100 uM, IBMX 100 uM
Protocol: as §1, §2, §3, §4

TSG-8 (MCAF) mRNA = settings: growth arrested FS-4 cells, 2 h; TNF 20 ng/ml, CHX 10 ug/ml, IFN-β 500 U/ml, IFN-γ 100 U/ml, IL-1-α 1 ng/ml, EGF 25 ng/ml, TGF-β 2 ng/ml, poly(I).poly(C) 50 ug/ml, TPA 100 ng/ml, A23187 1 uM, forskolin 10 uM, dBcAMP 100 uM, IBMX 100 uM
Protocol: as §1, §2, §3, §4

| Compound | Relative Increase in mRNA Level TSG-1 (IL-8) (TSG-1 (IL-8) mRNA) | Relative Increase in mRNA Level TSG-12 (TSG-12 mRNA) | Relative Increase in mRNA Level TSG-14 (TSG-14 mRNA) | Relative Increase in mRNA Level TSG-21 (Collagenase) [1] | Relative Increase in mRNA Level TSG-27 (Stromelysin) [2] | Relative Increase in mRNA Level TSG-37 (MT-II) (TSG-37 (MT-II) mRNA) | Relative Increase in mRNA Level TSG-6 (TSG-6 mRNA) | Relative Increase in mRNA Level TSG-8 (MCAF) (TSG-8 (MCAF) mRNA) |
| --- | --- | --- | --- | --- | --- | --- | --- | --- |
| TGF-β | 0 | 0 | 0 | 0 | 0 | 0 | 0 |  |
| CCCCCCCCCCCCCC(=O)O[C@@H]1[C@@H](C)[C@@]2(O)[C@@H](C=C(CO)C[C@]3(O)C(=O)C(C)=C[C@@H]23)[C@@H]2C(C)(C)[C@]12OC(C)=O [TPA, 12-O-tetradecanoylphorbol 13-acetate] | + | ++ | + | ++++ | ++++ | + | + | ++ |
| C=C[C@@]1(C)CC(=O)[C@]2(O)[C@@]3(C)[C@@H](O)CCC(C)(C)[C@@H]3[C@H](O)[C@H](OC(C)=O)[C@@]2(C)O1 [Forskolin, forskolin] | 0 | 0 | 0 | 0 | 0 | 0 |  | 0 |
| EGF: Epidermal growth factor | 0 | + | + | ++ | ++ | + | 0 | + |
| CNc1ccc2oc(C[C@H]3O[C@@]4(CC[C@H]3C)O[C@H]([C@H](C)C(=O)c3ccc[nH]3)[C@H](C)C[C@H]4C)nc2c1C(=O)O [A23187] | + | ++ | 0 |  |  | 0 | + | ++ |
| CCCC(=O)Nc1ncnc2c1ncn2[C@@H]1O[C@@H]2COP(=O)(O)O[C@H]2[C@H]1OC(=O)CCC [dBcAMP, N^6-2′-O-dibutyl adenosine cyclic 3′,5′-monophosphate] | 0 | + | 0 |  |  |  | 0 | + |
| PDGF | 0 | + | + | 0 | 0 | 0 | 0 | + |
| IFN-γ: E. coli-derived human gamma interferon | 0 | + | 0 | 0 | 0 | 0 | 0 | ++ |
| C[C@@H]1C[C@@H]([C@H](O)CC2CC(=O)NC(=O)C2)C(=O)[C@@H](C)C1 [CHX, cycloheximide] | 0 | +++ | + | 0 | 0 | 0 | 0 | + |

Reference: US6518401B2, “Tumor necrosis factor stimulated gene 6 (TSG-6) protein” (New York University, priority 1991, dated 2003)
